Experimental data as given in patent US8835495B2, “Pharmaceutical composition comprising cyclobenzaprine and aceclofenac in association” (Incrementha P, D & I Pesquisa, Desenvolvimento e Inovacao …, priority 2006, dated 2014).
Counter-ions that a name gives are not always drawn.

Test: Comparative stability study of cyclobenzaprine hydrochloride and aceclofenac together and isolated (opened glass flasks, oven)
Type: physicochemical
Details: oven at 50° C. and 90% relative moisture, after 30 days

SMILES	content of active ingredient(s) by chromatographic analysis
O=C(O)COC(=O)Cc1ccccc1Nc1c(Cl)cccc1Cl [aceclofenac, 2-[2-[2-[(2,6-dichlorophenyl)amino]phenyl]acetyl]oxyacetic acid]	remained unaltered
CN(C)CCC=C1c2ccccc2C=Cc2ccccc21 [cyclobenzaprine hydrochloride, 3-(5H-dibenzo[a,d]cyclohepten-5-ylidene)-N,N-dimethyl-1-propanamine]	remained unaltered
